{"source": "patent US9237747B2", "about": "“Herbicidal compositions comprising 4-amino-3-chloro-5-fluoro-6-(4-chloro-2-fluoro-3-methoxyphenyl) pyridine-2-carboxylic acid or a derivative thereof and insecticides” (priority 2013, dated 2016)", "key": {"[1]": {"test_system": "LEFCH", "assay": "whole plant or invertebrate", "format": "in vivo, Leptochloa chinensis", "description": "(§1) Seeds or nutlets of the desired test plant species were planted in a soil matrix prepared by mixing a loam or sandy loam soil (e.g., 28.6 percent silt, 18.8 percent clay, and 52.6 percent sand, with a pH of about 5.8 and an organic matter content of about 1.8 percent) and calcareous grit in an 80 to 20 ratio. The soil matrix was contained in plastic pots with a volume of 1 quart and a surface area of 83.6 square centimeters (cm^2). […] The plants were grown for 8-22 days in a greenhouse with an approximate 14 hour (h) photoperiod which was maintained at about 29° C. during the day and 26° C. during the night. Nutrients (Peters Excel® 15-5-15 5-Ca 2-Mg and iron chelate) were applied in the irrigation solution as needed and water was added on a regular basis. Supplemental lighting was provided with overhead metal halide 1000-Watt lamps as necessary. The plants were employed for testing when they reached the first through fourth true leaf stage.\n(§2) Treatments consisted of the acid or esters of 4-amino-3-chloro-6-(4-chloro-2-fluoro-3-methoxyphenyl)-5-fluoropyridine-2-carboxylic acid (Compound A), each formulated as an SC (suspension concentrate), and various insecticidal components alone and in combination. Forms of compound A were applied on an acid equivalent basis.\n(§3) For treatments comprised of formulated compounds, measured amounts of compounds were placed individually in 25 mL glass vials and diluted in a volume of 1.25% volume per volume (v/v) Agri-Dex® crop oil concentrate to obtain 12× stock solutions. […] Application solutions were prepared by adding an appropriate amount of each stock solution (e.g., 1 mL) and diluted to the appropriate final concentrations with the addition of […] of an aqueous mixture of 1.25% (v/v) crop oil concentrate so that the final spray solutions contained 1.25+/−0.05% (v/v) crop oil concentrate.\n(§4) As required, additional water and/or 97:3 v/v acetone/DMSO was added to individual application solutions so that the final acetone and DMSO concentrations of the application solutions being compared were 8.1% and 0.25%, respectively.\n(§5) All stock solutions and applications solutions were visually inspected for compound compatibility prior to application. Spray solutions were applied to the plant material with an overhead Mandel track sprayer equipped with 8002E nozzles calibrated to deliver 187 L/ha over an application area of 0.503 square meters (m^2) at a spray height of 18 to 20 inches (46 to 50 cm) above average plant canopy height. Control plants were sprayed in the same manner with the solvent blank.\n(§6) The treated plants and control plants were placed in a greenhouse as described above and watered by sub-irrigation to prevent wash-off of the test compounds. After approximately 3 weeks, the condition of the test plants as compared to that of the untreated plants was determined visually and scored on a scale of 0 to 100 percent where 0 corresponds to no injury or growth inhibition and 100 corresponds to complete kill.\n(§7) Colby's equation was used to determine the herbicidal effects expected from the mixtures (Colby, S. R. Calculation of the synergistic and antagonistic response of herbicide combinations. Weeds 1967, 15, 20-22.).\n(§8) The following equation was used to calculate the expected activity of mixtures containing two active ingredients, A and B: Expected=A+B−(A×B/100)"}, "[2]": {"test_system": "ECHCO", "assay": "Postemergence foliar-applied weed control, direct-seeded rice (greenhouse)", "format": "in vivo, Echinochloa colonum", "description": "as §1, §2, §3, §4, §5, §6, §7, §8"}, "[3]": {"test_system": "SCPJU", "assay": "Postemergence foliar-applied weed control, direct-seeded rice (greenhouse)", "format": "in vivo, Schoenoplectus juncoides", "settings": "480 g ai/ha alone", "excerpt": "Seeds or nutlets of the desired test plant species were planted in a soil matrix prepared by mixing a loam or sandy loam soil (e.g., 28.6 percent silt, 18.8 percent clay, and 52.6 percent sand, with a pH of about 5.8 and an organic matter content of about 1.8 percent) and calcareous grit in an 80 to 20 ratio. The soil matrix was contained in plastic pots with a volume of 1 quart and a surface area of 83.6 square centimeters (cm^2). When required to ensure good germination and healthy plants, a fungicide treatment and/or other chemical or physical treatment was applied. The plants were grown for 8-22 days in a greenhouse with an approximate 14 hour (h) photoperiod which was maintained at about 29° C. during the day and 26° C. during the night. Nutrients (Peters Excel® 15-5-15 5-Ca 2-Mg and iron chelate) were applied in the irrigation solution as needed and water was added on a regular basis. […]\n(§9) Treatment requirements were calculated based upon the rates being tested, the concentration of active ingredient or acid equivalent in the formulation, and a 12 milliliter (mL) application volume at a rate of 187 liters per hectare (L/ha).\nFor treatments comprised of formulated compounds, measured amounts of compounds were placed individually in 25 mL glass vials and diluted in a volume of 1.25% volume per volume (v/v) Agri-Dex® crop oil concentrate to obtain 12× stock solutions. […]"}, "[4]": {"test_system": "CYPIR", "format": "in vivo, Cyperus iria", "settings": "480 g ai/ha alone", "excerpt": "Seeds or nutlets of the desired test plant species were planted in a soil matrix prepared by mixing a loam or sandy loam soil (e.g., 28.6 percent silt, 18.8 percent clay, and 52.6 percent sand, with a pH of about 5.8 and an organic matter content of about 1.8 percent) and calcareous grit in an 80 to 20 ratio. The soil matrix was contained in plastic pots with a volume of 1 quart and a surface area of 83.6 square centimeters (cm^2). When required to ensure good germination and healthy plants, a fungicide treatment and/or other chemical or physical treatment was applied. The plants were grown for 8-22 days in a greenhouse with an approximate 14 hour (h) photoperiod which was maintained at about 29° C. during the day and 26° C. during the night. Nutrients (Peters Excel® 15-5-15 5-Ca 2-Mg and iron chelate) were applied in the irrigation solution as needed and water was added on a regular basis. Supplemental lighting was provided with overhead metal halide 1000-Watt lamps as necessary. The plants were employed for testing when they reached the first through fourth true leaf stage.\nas §2, §9, §3, §4, §5, §6, §7, §8"}, "[5]": {"test_system": "CYPRO", "assay": "In-water applied weed control, transplanted paddy rice (greenhouse)", "format": "in vivo, Cyperus rotundus", "settings": "21 DAA", "description": "(§10) Weed seeds or nutlets of the desired test plant species were planted in puddled soil (mud) prepared by mixing a shredded, non-sterilized mineral soil (50.5 percent silt, 25.5 percent clay, and 24 percent sand, with a pH of about 7.6 and an organic matter content of about 2.9 percent) and water at a 1:1 volumetric ratio. The prepared mud was dispensed in 365 mL aliquots into 16-ounce (oz.) non-perforated plastic pots with a surface area of 86.59 square centimeters (cm^2) leaving a headspace of 3 centimeters (cm) in each pot. Rice seeds were planted in Sun Gro MetroMix® 306 planting mixture, which typically has a pH of 6.0 to 6.8 and an organic matter content of about 30 percent, in plastic plug trays. Seedlings at the second or third leaf stage of growth were transplanted into 860 mL of mud contained in 32-oz. non-perforated plastic pots with a surface area of 86.59 cm^2 4 days prior to herbicide application. The paddy was created by filling the headspace of the pots with 2.5 to 3 cm of water. When required to ensure good germination and healthy plants, a fungicide treatment and/or other chemical or physical treatment was applied. The plants were grown for 4-22 days in a greenhouse with an approximate 14 h photoperiod which was maintained at about 29° C. during the day and about 26° C. during the night. Nutrients were added as Osmocote® (17:6:10, N:P:K+minor nutrients) at 2 grams (g) per 16-oz. pot and 4 g per 32-oz. pot. Water was added on a regular basis to maintain the paddy flood, and supplemental lighting was provided with overhead metal halide 1000-Watt lamps as necessary. The plants were employed for testing when they reached the first through fourth true leaf stage.\nTreatments consisted of the acid or esters of 4-amino-3-chloro-5-fluoro-6-(4-chloro-2-fluoro-3-methoxy-phenyl)pyridine-2-carboxylic acid (compound A) each formulated as an SC (suspension concentrate) and various herbicidal components alone and in combination. Forms of compound A were applied on an acid equivalent basis.\nOther […] components were applied on an active ingredient basis and consisted of etofenprox (technical grade material) and sulfoxaflor formulated as Sulfoxaflor WG.\n(§11) Treatment requirements for each compound or herbicidal component were calculated based upon the rates being tested, the concentration of active ingredient or acid equivalent in the formulation, an application volume of 2 mL per component per pot, and an application area of 86.59 cm^2 per pot.\nFor formulated compounds, a measured amount was placed in an individual 100 or 200 mL glass vial and was dissolved in a volume of 1.25% (v/v) AgriDex® crop oil concentrate to obtain application solutions.\nFor technical grade compounds, a weighed amount was placed in an individual 100 to 200 mL glass vial and was dissolved in a volume of acetone to obtain concentrated stock solutions.\nApplications were made by injecting with a pipetter appropriate amounts of the application solutions, individually and sequentially, into the aqueous layer of the paddy. Control plants were treated in the same manner with the solvent blank. Applications were made so that all treated plant material received the same concentrations of acetone and crop oil concentrate.\nas §6, with “and water was added as needed” for “and watered by sub-irrigation”, “to maintain a paddy flood.” for “to prevent wash-off of the test compounds.”, “3 weeks” for “3 weeks,”, “compared with” for “compared to”\nColby's equation was used to determine the herbicidal effects expected from the mixtures (Colby, S. R. Calculation of the synergistic and antagonistic response of herbicide combinations. Weeds 1967, 15, 20-22.). […]"}, "[6]": {"test_system": "CYPES", "format": "in vivo, Cyperus esculentus", "description": "as §1, §2, §3, §4, §5, §6, §7, §8"}, "[7]": {"test_system": "ECHCG", "format": "in vivo, Echinochloa crus-galli", "description": "as §1, §2, §3, §4, §5, §6, §7, §8"}, "[8]": {"test_system": "IPOHE", "format": "in vivo, Ipomoea hederacea", "description": "as §1, §2, §3, §4, §5, §6, §7, §8"}, "[9]": {"test_system": "ECHCG", "assay": "In-water applied weed control, transplanted paddy rice (greenhouse)", "format": "in vivo, Echinochloa crus-galli", "description": "as §10, with “stage. […]” for “stage.”\nas §11\nFor formulated compounds, a measured amount was placed in an individual 100 or 200 mL glass vial and was dissolved in a volume of 1.25% (v/v) AgriDex® crop oil concentrate to obtain application solutions. […]\nThe treated plants and control plants were placed in a greenhouse as described above and water was added as needed to maintain a paddy flood. After approximately 3 weeks the condition of the test plants as compared with that of the untreated plants was determined visually and scored on a scale of 0 to 100 percent where 0 corresponds to no injury or growth inhibition and 100 corresponds to complete kill. […]"}}, "note": "Where two headings read alike, the source gives them in different places."}
{"smiles": "CNC(=O)CSP(=S)(OC)OC", "note": "[Dimethoate, O,O-dimethyl S-methylcarbamoylmethyl phosphorodithioate]", "values": [{"measurement": "pest or weed control at 480 g/ha", "setting": "[1]; Dinebra chinensis, post-emergence, 528 h, read-out: Visual Weed Control (%) - 22 DAA LEFCH Obs", "value": 0, "unit": "%"}, {"measurement": "Visual Weed Control (%) - 22 DAA ECHCO Obs", "setting": "[2]; 480 g ai/ha alone", "value": 10, "unit": "%"}, {"measurement": "Visual Weed Control (%) - 22 DAA SCPJU Obs", "setting": "[3]", "value": 0, "unit": "%"}, {"measurement": "Visual Weed Control (%) - 22 DAA CYPIR Obs", "setting": "[4]", "value": 0, "unit": "%"}]}
{"smiles": "CCOc1ccc(C(C)(C)COCc2cccc(Oc3ccccc3)c2)cc1", "note": "[Etofenprox, 2-(4-ethoxyphenyl)-2-methylpropyl 3-phenoxybenzyl ether]", "values": [{"measurement": "Visual Weed Control (%) - 19 DAA LEFCH Obs", "setting": "[1]; 300 g ai/ha alone", "value": 0, "unit": "%"}, {"measurement": "pest or weed control at 150 g/ha", "setting": "[1]; Dinebra chinensis, post-emergence, 528 h, 150 g ai/ha alone, read-out: Visual Weed Control (%) - 22 DAA LEFCH Obs", "value": 0, "unit": "%"}, {"measurement": "Visual Weed Control (%) - 21 DAA CYPRO Obs", "setting": "[5]; 75 g ai/ha alone", "value": 0, "unit": "%"}, {"measurement": "Visual Weed Control (%) - 21 DAA CYPRO Obs", "setting": "[5]; 150 g ai/ha alone", "value": 0, "unit": "%"}, {"measurement": "Visual Weed Control (%) - 21 DAA CYPRO Obs", "setting": "[5]; 300 g ai/ha alone", "value": 0, "unit": "%"}, {"measurement": "Visual Weed Control (%) - 19 DAA ECHCO Obs", "setting": "[2]; 300 g ai/ha alone", "value": 0, "unit": "%"}, {"measurement": "Visual Weed Control (%) - 22 DAA CYPES Obs", "setting": "[6]; 75 g ai/ha alone", "value": 0, "unit": "%"}, {"measurement": "Visual Weed Control (%) - 22 DAA CYPES Obs", "setting": "[6]; 150 g ai/ha alone", "value": 0, "unit": "%"}, {"measurement": "Visual Weed Control (%) - 22 DAA ECHCG Obs", "setting": "[7]; 75 g ai/ha alone", "value": 0, "unit": "%"}, {"measurement": "Visual Weed Control (%) - 22 DAA ECHCG Obs", "setting": "[7]; 150 g ai/ha alone", "value": 0, "unit": "%"}, {"measurement": "Visual Weed Control (%) - 19 DAA ECHCG Obs", "setting": "[7]; 300 g ai/ha alone", "value": 0, "unit": "%"}, {"measurement": "Visual Weed Control (%) - 22 DAA IPOHE Obs", "setting": "[8]; 75 g ai/ha alone", "value": 0, "unit": "%"}, {"measurement": "Visual Weed Control (%) - 22 DAA IPOHE Obs", "setting": "[8]; 150 g ai/ha alone", "value": 0, "unit": "%"}, {"measurement": "Visual Weed Control (%) - 21 DAA ECHCG Obs", "setting": "[9]; 75 g ai/ha alone", "value": 0, "unit": "%"}, {"measurement": "Visual Weed Control (%) - 21 DAA ECHCG Obs", "setting": "[9]; 150 g ai/ha alone", "value": 0, "unit": "%"}, {"measurement": "Visual Weed Control (%) - 21 DAA ECHCG Obs", "setting": "[9]; 300 g ai/ha alone", "value": 0, "unit": "%"}]}
